Values after ≈ are worked out from the molar mass of the structure shown.
Molecular target: T1, lipase
T1 construct: gene PNLIP; pig pancreas is only the usual preparation
Assay: 4-nitrophenyl butyrate hydrolysis, absorbance at […] nm
Type: biochemical
Conditions: potassium phosphate pH 7.0, 37 °C, 10 min, standard drug, covalent

CCCCCCCCCCC[C@@H](C[C@@H]1OC(=O)[C@H]1CCCCCC)OC(=O)[C@H](CC(C)C)NC=O [Orlistat]
IC50: 6.4 µg/mL (≈ 12.9 µM)
